# How the values were obtained:
# [1] = In vitro stability in plasma; format: in vitro ADME, mouse; details: mice plasma
# Description: The stability of ITRI-148 was assessed in plasma across four species: humans, dogs, rats, and mice. ITRI-148 added to pre-warmed plasma at 1 μM was maintained at the designated temperature, and aliquots were collected at 0, 0.5, 1, 2, and 4 hours after incubation. At each time point, 20 μL of the samples was taken to terminate the reaction, followed by LC-MS/MS analysis to determine the remaining compound concentration. Data from duplicated experiments was calculated and presented as mean ± SD.
# [2] = Repeated-dose toxicity study: mortality, body weight, tolerability; format: in vivo
# Description: Repeated-dose toxicity and toxicokinetic studies
# Repeated-dose oral toxicity study and toxicokinetic (TK) profiling was conducted in Sprague-Dawley rats. ITRI-148 was administered once daily using oral gavage at doses of 100, 300, 600, and 1000 mg/kg/day for 7 consecutive days, followed by a 7-day recovery period. Each dose group comprised 3 animals designated for toxicokinetic (TK) analysis and 6 animals for dose-range finding (DRF) evaluation. Clinical observations, body weights, and food consumption were monitored daily throughout the dosing and recovery periods. […]
# All samples were analyzed in duplicate. Hematology and serum clinical chemistry analyses were performed on Day 7 (end of dosing) and Day 14 (end of recovery). At necropsy, organ weights (including heart, liver, kidney, spleen, thymus, and adrenal glands) were recorded, and gross pathological changes were examined. All procedures were conducted in compliance with institutional animal care and use guidelines. […]
# Targeting androgen receptor and the variants by an orally bioavailable
# Proteolysis Targeting Chimeras compound in castration resistant prostate cancer
# AR(H875Y) = target: T1, AR(H875Y) (Homo sapiens, UniProt P10275, H875Y); test: Degradation of ectopic Myc-tagged AR mutant in DU145 cells (western blot); format: cell-based; details: 10 μM, 24 hours
# T1 construct: expressed in transfected cells; host or cells: DU145
# T1 sequence (P10275 1-920 H875Y): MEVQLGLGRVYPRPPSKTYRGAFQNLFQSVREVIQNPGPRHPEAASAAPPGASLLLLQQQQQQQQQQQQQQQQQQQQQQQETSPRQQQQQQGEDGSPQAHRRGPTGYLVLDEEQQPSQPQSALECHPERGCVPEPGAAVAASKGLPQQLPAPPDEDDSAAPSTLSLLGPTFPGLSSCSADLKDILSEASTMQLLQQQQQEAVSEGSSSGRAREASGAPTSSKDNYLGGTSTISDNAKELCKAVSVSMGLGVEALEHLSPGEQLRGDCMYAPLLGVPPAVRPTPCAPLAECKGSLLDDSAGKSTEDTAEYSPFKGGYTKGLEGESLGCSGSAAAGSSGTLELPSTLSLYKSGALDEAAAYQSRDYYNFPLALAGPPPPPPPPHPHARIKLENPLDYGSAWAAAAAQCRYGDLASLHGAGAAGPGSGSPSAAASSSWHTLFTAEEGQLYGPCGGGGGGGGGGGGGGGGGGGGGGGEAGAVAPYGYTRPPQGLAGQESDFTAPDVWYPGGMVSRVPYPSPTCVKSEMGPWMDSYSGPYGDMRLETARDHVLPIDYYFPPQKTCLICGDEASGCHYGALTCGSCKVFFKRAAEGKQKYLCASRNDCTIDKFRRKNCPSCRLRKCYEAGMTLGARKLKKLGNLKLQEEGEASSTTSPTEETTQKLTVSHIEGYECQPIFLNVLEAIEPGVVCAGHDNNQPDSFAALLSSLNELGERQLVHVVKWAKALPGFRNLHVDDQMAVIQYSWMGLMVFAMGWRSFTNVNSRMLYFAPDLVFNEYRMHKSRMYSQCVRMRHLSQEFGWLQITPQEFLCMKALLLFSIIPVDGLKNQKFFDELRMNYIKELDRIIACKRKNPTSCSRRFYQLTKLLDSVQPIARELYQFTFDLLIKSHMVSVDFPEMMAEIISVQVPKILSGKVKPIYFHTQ
# From the text: pLenti4/TO/Flag-AR and pLenti4/TO/Flag-AR(∆LBD) plasmids are as described previously. To generate pLenti4/TO/Flag-AR-V7 plasmid, the DNA fragment of AR-V7 was amplified from pEGFP-C1-AR V7, a gift from Michael A Mancini (Addgene plasmid # 86856), and inserted into the pLenti4/TO plasmid carrying a N-terminal Flag tag between BamH1 and XhoI. The AR(L702H) and AR(H875Y) mutants were generated by site-directed mutagenesis of pCMV-Myc-AR, which is previously constructed and described in [22]. Primers used in the cloning and mutagenesis are: […]
# Cell lysis, Western blotting, and AR ubiquitination were performed as described in [17]. […]
# Fig. 1 ITRI-148 induces degradation of both AR and AR-V7 proteins in CRPC cells. […] AR-V7 expression was detected using an anti-Flag antibody. […] An N-terminal AR antibody was used to detect both full-length AR and LBD-truncated variants (AR-V(ΔLBD)) in CWR22Rv1 cells, while AR-V7 was detected using an AR-V7-specific antibody. DC₅₀ values were calculated from normalized band intensities, and Dₘₐₓ represents the maximal degradation achieved at 10 μM ITRI-148. (D) Immunofluorescence staining of AR after 24 or 48 hours of ITRI-148 treatment, detected using an N-terminal AR antibody. […] Quantified AR levels are as indicated. […]
compound,measurement,setting,value
O=C1CCC(N2C(=O)c3cccc(NCC(=O)N4CCC(N5CCC(C#Cc6ccc(C7CCN(C8=Nn9c(nnc9C(F)(F)F)CC8)CC7)cc6)CC5)CC4)c3C2=O)C(=O)N1 (centres unmarked) [ITRI-148],Remaining of intact drug (%),"[1]; 1 μM, incubation up to 4 hours",80.2 ± 0.3%
same,half-life at 1 μM,"[1]; mouse, read-out: Plasma Stability t1/2",> 4 h
same,margin of maximum rat dose (1000 mg/kg) over the efficacious dose used in xenograft model,"[2]; rat, in vivo",> 10 fold
same,body weight loss,"[2]; rats, PO 100-1000 mg/kg/day, any treatment group",No animal exhibited >10% weight loss in any treatment group
same,degradation of Myc-tagged AR mutant H875Y,AR(H875Y),degraded

# Source: article PMC12661400, “Oral bioavailable ITRI-148 degrades androgen receptor variants and overcomes antiandrogen resistance in advanced prostate cancer” (Neoplasia (New York, N.Y.), 2025)
